Where two headings read alike, the source gives them in different places.
Legend:
[1] = system: MCF-7 (breast, hormone-dependent); assay: Cell growth inhibition assay (SRB), MCF-7; assay type: cell-based; settings: Homo sapiens, MCF7, SRB method, 96 hours incubation
Procedure: (§1) OVCAR-3, MCF-7, PC3, HepG2, A549, HT-29 and MKN-45 were grown in RPMI1640 medium (Invitrogen, Carlsbad, Calif.) supplemented with 10% fetal bovine serum (‘FBS’), 1 mM sodium pyruvate, 10 mM HEPES and 100 U/ml penicillin and […] streptomycin (‘P/S’). MDA-MB-231, HCT116, UMRC2, Caki-1, PANC-1 and HEK293 cells were maintained in Dulbecco's modified Eagle's medium (‘DMEM’, Invitrogen) supplemented with 10% FBS, P/S, 10 mM HEPES and 2 mM L-glutamine. HUVEC was maintained in M199 supplemented with basic fibroblast growth factor (‘bFGF’) […] and FBS 20%. All cells were incubated at 37° C. under humidified 5% CO2.
(§2) The growth inhibition of the substituted quinoxalin-piperazine compounds against a variety of human tumor cells was evaluated. The relative importance of particular substituent groups on the compounds was also studied. The substituted piperazine derivative compounds, prepared as described above, were tested, along with DMSO as a control.
(§3) The growth inhibition assay of various compounds against human tumor cell lines was performed using the Sulforhodamine B (‘SRB’) method (Skehan et al., J. National Cancer Institute, 1990, 82, 1107-1112). […] Triplicate wells were used for each treatment. The cells were incubated with the various compounds for 96 hours at 37° C. in a humidified 5% CO2 atmosphere. After 96-hour incubation, cells were fixed with 10% trichloroacetic acid (‘TCA’), incubated for 1 hour at 4° C., and washed 3 times with tap water. Subsequently cells were stained with 0.4% sulforhodamine B in 1% acetic acid for 30 minutes, washed 4 times with 1% acetic acid, and air-dried again. After 5 minutes agitation in 10 mM Tris solution, the absorbance of each well was measured at 530 nm using Benchmark Plus Microplate reader (Bio-Rad Laboratories, Hercules, Calif.).
(§4) To translate the OD530 values into the number of live cells in each well, the OD530 values were compared to those on standard OD530-versus-cell number curves generated for each cell line. The percent survival was calculated using the formula: % Survival=live cell number[test]/live cell number[control]×100
(§5) The IC50 values were calculated by non-linear regression analysis.

UMRC2 (kidney) = assay: Cell growth inhibition assay (SRB), UMRC2; assay type: cell-based, human; settings: Homo sapiens, SRB method, 96 hours incubation
Procedure: as §1, §2, §3, §4, §5

OVCAR-3 (ovary) = assay: Cell growth inhibition assay (SRB), OVCAR-3; assay type: cell-based; settings: Homo sapiens, SRB method, 96 hours incubation
Procedure: as §1, §2, §3, §4, §5

Caki-1 (kidney) = assay: Cell growth inhibition assay (SRB), Caki-1; assay type: cell-based; settings: Homo sapiens, SRB method, 96 hours incubation
Procedure: as §1, §2, §3, §4, §5

MKN-45 (stomach) = assay: Cell growth inhibition assay (SRB), MKN-45; assay type: cell-based; settings: Homo sapiens, SRB method, 96 hours incubation
Procedure: as §1, §2, §3, §4, §5

A549 (lung) = assay: Cell growth inhibition assay (SRB), A549; assay type: cell-based; settings: Homo sapiens, SRB method, 96 hours incubation
Procedure: as §1, §2, §3, §4, §5

HCT116 (colon) = assay: Cell growth inhibition assay (SRB), HCT116; assay type: cell-based; settings: Homo sapiens, HCT-116, SRB method, 96 hours incubation
Procedure: as §1, §2, §3, §4, §5

MDA-MB-231 (breast) = assay: Cell growth inhibition assay (SRB), MDA-MB-231; assay type: cell-based, human; settings: Homo sapiens, SRB method, 96 hours incubation
Procedure: as §1, §2, §3, §4, §5

PC3 (prostate) = assay: Cell growth inhibition assay (SRB), PC3; assay type: cell-based; settings: Homo sapiens, SRB method, 96 hours incubation
Procedure: as §1, §2, §3, §4, §5

HepG2 (liver) = assay: Cell growth inhibition assay (SRB), HepG2; assay type: cell-based; settings: Homo sapiens, SRB method, 96 hours incubation
Procedure: as §1, §2, §3, §4, §5

PANC-1 (pancreas) = assay: Cell growth inhibition assay (SRB), PANC-1; assay type: cell-based, human; settings: Homo sapiens, SRB method, 96 hours incubation
Procedure: as §1, §2, §3, §4, §5

HT-29 (colon) = assay: Cell growth inhibition assay (SRB), HT-29; assay type: cell-based; settings: Homo sapiens, SRB method, 96 hours incubation
Procedure: as §1, §2, §3, §4, §5

[2] = read-out: Inhibition of cell growth (IC50, μM) by quinoxaline-piperazine compounds against human cancer cell lines: MCF7
[3] = UMRC2, read-out: Inhibition of cell growth (IC50, μM) by quinoxaline-piperazine compounds against human cancer cell lines: UMRC2
[4] = OVCAR-3, OVCAR3, read-out: Inhibition of cell growth (IC50, μM) by quinoxaline-piperazine compounds against human cancer cell lines: OVCAR3
[5] = Caki-1, read-out: Inhibition of cell growth (IC50, μM) by quinoxaline-piperazine compounds against human cancer cell lines: Caki-1
[6] = MKN-45, MKN45, read-out: Inhibition of cell growth (IC50, μM) by quinoxaline-piperazine compounds against human cancer cell lines: MKN45
[7] = A549, read-out: Inhibition of cell growth (IC50, μM) by quinoxaline-piperazine compounds against human cancer cell lines: A549
[8] = HCT116, read-out: Inhibition of cell growth (IC50, μM) by quinoxaline-piperazine compounds against human cancer cell lines: HCT116
[9] = MDA-MB-231, read-out: Inhibition of cell growth (IC50, μM) by quinoxaline-piperazine compounds against human cancer cell lines: MDA-MB-231
[10] = PC-3, read-out: Inhibition of cell growth (IC50, μM) by quinoxaline-piperazine compounds against human cancer cell lines: PC-3
[11] = HepG2, read-out: Inhibition of cell growth (IC50, μM) by quinoxaline-piperazine compounds against human cancer cell lines: HepG2
[12] = PANC-1, read-out: Inhibition of cell growth (IC50, μM) by quinoxaline-piperazine compounds against human cancer cell lines: PANC-1
[13] = HT-29, HT29, read-out: Inhibition of cell growth (IC50, μM) by quinoxaline-piperazine compounds against human cancer cell lines: HT29
[14] = MCF-7 (breast, hormone-dependent), read-out: IC50, MCF-7
[15] = UMRC2 (kidney), read-out: IC50, UMRC2
[16] = OVCAR-3 (ovary), read-out: IC50, OVCAR-3
[17] = Caki-1 (kidney), read-out: IC50, Caki-1
[18] = MKN-45 (stomach), read-out: IC50, MKN-45
[19] = A549 (lung), read-out: IC50, A549
[20] = HCT116 (colon), read-out: IC50, HCT116
[21] = MDA-MB-231 (breast), read-out: IC50, MDA-MB-231
[22] = PC3 (prostate), read-out: IC50, PC3
[23] = HepG2 (liver), read-out: IC50, HepG2
[24] = PANC-1 (pancreas), read-out: IC50, PANC-1
[25] = HT-29 (colon), read-out: IC50, HT-29

| IC50 [1, 2] [µM] | IC50 (OVCAR-3 (ovary); [4]) [µM] | IC50 (MKN-45 (stomach); [6]) [µM] | IC50 (A549 (lung); [7]) [µM] | IC50 (HCT116 (colon); [8]) [µM] | IC50 (MDA-MB-231 (breast); [9]) [µM] | IC50 (PC3 (prostate); [10]) [µM] | IC50 (HepG2 (liver); [11]) [µM] | IC50 (PANC-1 (pancreas); [12]) [µM] | IC50 (HT-29 (colon); [13]) [µM] | IC50 [1, 14] [µM] | IC50 (OVCAR-3 (ovary); [16]) [µM] | IC50 (A549 (lung); [19]) [µM] | IC50 (HCT116 (colon); [20]) [µM] | IC50 (MDA-MB-231 (breast); [21]) [µM] | IC50 (PANC-1 (pancreas); [24]) [µM] | Structure (SMILES) | IC50 (UMRC2 (kidney); [3]) [µM] | IC50 (Caki-1 (kidney); [5]) [µM] | IC50 (UMRC2 (kidney); [15]) [µM] | IC50 (Caki-1 (kidney); [17]) [µM] | also measured |
| --- | --- | --- | --- | --- | --- | --- | --- | --- | --- | --- | --- | --- | --- | --- | --- | --- | --- | --- | --- | --- | --- |
| 0.025 | 0.012 | 0.02 | 0.021 | 0.019 | 0.012 | 0.021 | 0.019 | 0.021 | 0.021 | – | – | – | – | – | – | COc1cc(OC)cc(N2CCN(C(=O)Nc3nc4cc(F)ccc4nc3OC)CC2)c1 [Compound 5, 1-[(6-Fluoro-2-methoxyquinoxalin-3-yl)aminocarbonyl]-4-(3,5-dimethoxyphenyl)piperazine] | 0.013 | 0.011 | – | – | – |
| 0.076 | 0.042 | 0.064 | 0.073 | 0.068 | 0.05 | 0.076 | 0.063 | 0.098 | 0.079 | – | – | – | – | – | – | COc1cc(OC)cc(N2CCN(C(=O)Nc3nc4cc(Cl)ccc4nc3OC)CC2)c1 [Compound 26, 1-[(6-Chloro-2-methoxyquinoxalin-3-yl)aminocarbonyl]-4-(3,5-dimethoxyphenyl)piperazine] | 0.065 | 0.053 | – | – | – |
| 0.063 | 0.023 | 0.04 | 0.055 | 0.047 | 0.032 | 0.063 | 0.045 | 0.07 | 0.048 | – | – | – | – | – | – | COc1cc(OC)cc(N2CCN(C(=O)Nc3nc4cc(C)ccc4nc3OC)CC2)c1 [Compound 47, 1-[(2-Methoxy-6-methylquinoxalin-3-yl)aminocarbonyl]-4-(3,5-dimethoxyphenyl)piperazine] | 0.039 | 0.029 | – | – | – |
| – | – | – | – | – | – | – | – | – | – | 0.21 | 0.13 | 0.24 | 0.23 | 0.18 | 0.28 | COc1cc(OC)cc(N2CCN(C(=O)Nc3nc4ccc(Cl)cc4nc3OC)CC2)c1 [Compound 110, 1-[(6-Chloro-3-methoxyquinoxalin-2-yl)aminocarbonyl]-4-(3,5-dimethoxyphenyl)piperazine] | – | – | 0.21 | 0.18 | IC50 (MKN-45 (stomach); [18]): 0.2 µM; IC50 (PC3 (prostate); [22]): 0.27 µM; IC50 (HepG2 (liver); [23]): 0.21 µM; IC50 (HT-29 (colon); [25]): 0.25 µM |
| – | – | – | – | – | – | – | – | – | – | 0.6 | 0.36 | 0.75 | 0.48 | 0.17 | 0.24 | COc1nc2cc(Cl)ccc2nc1NC(=O)N1CCN(c2cccc(Cl)c2)CC1 [Compound 120, 1-[(6-Chloro-3-methoxyquinoxalin-2-yl)aminocarbonyl]-4-(3-chlorophenyl)piperazine] | – | – | 0.17 | 0.4 | – |
| – | – | – | – | – | – | – | – | – | – | 0.24 | 0.14 | 0.24 | 0.25 | 0.16 | 0.36 | COc1cc(OC)cc(N2CCN(C(=O)Nc3nc4ccc(C)cc4nc3OC)CC2)c1 [Compound 131, 1-[(3-Methoxy-6-methylquinoxalin-2-yl)aminocarbonyl]-4-(3,5-dimethoxyphenyl)piperazine] | – | – | 0.23 | 0.19 | IC50 (MKN-45 (stomach); [18]): 0.22 µM; IC50 (PC3 (prostate); [22]): 0.35 µM; IC50 (HepG2 (liver); [23]): 0.23 µM; IC50 (HT-29 (colon); [25]): 0.34 µM |

Source: patent US8598173B2, “1-[(6,7-substituted alkoxyquinoxalinyl)aminocarbonyl]-4-(hetero)arylpiperazine derivatives for treating tumors” (Korea Research Institute of Chemical Technology, priority 2004, dated 2013)
